Results published in patent US20250114380A1, “SMALL MOLECULE CD38 INHIBITORS AND METHODS OF USING SAME” (President and Fellows of Harvard College, priority 2011, published 2025).

Tests used:
[1] = test system: murine oogonial stem cells (OSCs); experiment: NAD+/NADH levels in oogonial stem cells; type: cell-based
Procedure: (§1) Oogonial stem cells were isolated from dissociated ovaries using a FACS based sorting protocol to purify OSCs free of contaminating oocytes (White et al., in press). Cells were maintained in culture medium consisted of minimum essential medium α (MEMα), 10% FBS, 1 mM sodium pyruvate, 1 mM non-essential amino acids, 2 mM 1-glutamine, 0.1 mM β-mercaptoethanol (Sigma), 10 ng/ml-1 LIF (Millipore), 1× N-2 MAX Media Supplement (R&D) 10 ng/ml EGF (Epidermal growth factor, Recombinant human; Gibco), 40 ng/ml human GDNF (glial cell line-derived neurotrophic factor; R&D systems), 1 ng/ml human bFGF (basic fibroblast growth factor; Gibco)
(§2) For all experiments 25,000 cells were plated in each well of a 24 well plate. Cells were allowed to attach for 24 h and then were treated with NMN (β-Nicotinamide mononucleotide; Sigma). Unless otherwise stated, NMN was added at for 12 and again for 6 hours before analysis (12+6 h).
NAD+/NADH levels were measured according to the manufacturer's instructions using the NAD/NADH Quantitation Kit (Biovision)

murine OSCs = experiment: Mitochondrial DNA copy number in OSCs; type: cell-based
Procedure: as §1, §2
Total cellular DNA was isolated from cells at the indicated time points using DNeasy Blood & Tissue Kit (Qiagen) according to the manufacturer's instructions. Mt DNA copy number was quantified using LightCycler 480 SYBR Green I Master (Roche Applied Science) using the following primers on a Roche 480 PCR machine.

[2] = test system: cultured murine oogonial stem cells; experiment: Spontaneous oocyte formation assay; type: cell-based; details: 200 μM and 400 μM NMN
Procedure: FIG. 9 depicts the increase in spontaneuous oocyte formation in cultured murine oogonial stem cells by nicotinamide mononucleotide. For assessment of spontaneous oocyte formation, each well of a 24-well plate was seeded with 25.000 OSCs, and the number of oocytes formed and released into the medium per well was assessed the second day after seeding as well as the designated time points after NMN treatment. Left bar=vehicle; middle bar=200 μM nicotinamide mononucleotide (NMN); right bar=400 μM NMN.
For assessment of spontaneous oocyte formation, each well of a 24-well plate was seeded with 25.000 OSCs, and the number of oocytes formed and released into the medium per well was assessed the second day after seeding as well as the designated time points after NMN treatment.

[3] = NAD+ levels in vivo in mice
Procedure: Cardiac [NAD^+] declines with age and is reversed by NMN treatment (n=3; 200 mg/kg/d intraperitoneally for 1 week).
(§3) FIG. 11A depicts the restorative effects of an NAD^+ precursor (NMN) on mitochondrial function in vivo.

[4] = Mitochondrial function in skeletal muscle in vivo; details: 24-month old mice, 1 week of treatment, I.P.
Source text: as §3

C2C 2 cells = experiment: Mitochondrial function in C2C 2 cells; type: cell-based; details: SIRT1-dependent (sh Ctl vs sh SIRT1)
cellular NADase activity = experiment: Cellular NADase activity; type: cell-based
Source text: FIG. 2A depicts inhibition in cellular NADase activity by CD38 inhibitors Apigenin and Quercetin. In certain embodiments, the invention relates to small molecules capable of inhibiting CD38 activity at nanomolar or micromolar concentrations (FIG. 1 and FIG. 3). Preliminary cellular assays on some of these compounds have shown that they are able to inhibit cellular NADase activity resulting in increased cellular NAD levels (FIG. 2a and FIG. 2b).

Structure (SMILES) | cellular NAD+ [1] | cellular NAD+/NADH [1] | cellular NADH [1] | mitochondrial DNA content (murine OSCs) | spontaneous oocyte formation [2] | age-related decline of cardiac [NAD+] ([3]; 200 mg/kg/d intraperitoneally for 1 week) | rise of NAD+ levels in brain, heart and skeletal muscle ([3]; intraperitoneal injection) | NAD+ levels in vivo ([3]; young and old mice) | decline in mitochondrial function in skeletal muscle [4] | mitochondrial function (C2C 2 cells) | cellular NADase activity (cellular NADase activity)
NC(=O)c1ccc[n+]([C@@H]2O[C@H](COP(=O)([O-])O)[C@@H](O)[C@H]2O)c1 [NMN, β-Nicotinamide mononucleotide] | increase | increase | increase | increase | increase | reversed | 30-100% | raises NAD^+ levels | completely reversed | increases mitochondrial function | 
O=c1cc(-c2ccc(O)cc2)oc2cc(O)cc(O)c12 [Apigenin, 5,7,4′-Trihydroxyflavone] |  |  |  |  |  |  |  |  |  |  | inhibition
O=c1c(O)c(-c2ccc(O)c(O)c2)oc2cc(O)cc(O)c12 [Quercetin, 3,5,7,3′,4′-Pentahydroxyflavone] |  |  |  |  |  |  |  |  |  |  | inhibition
